The values that follow come from patent US10556008B2, “Methods of treatment of keloid using an anti-VEGF agent” (priority 2012, dated 2020).

Entries after “also recorded” stand apart in the source; their conditions may differ.

The conditions of assay [1]: commercially available topical steroids (skin); cited from earlier work.
The test system of a further assay is pterygium recurrence. Put plainly: Treatment of pterygium recurrence after pterygiectomy with bevacizumab, with or without combination therapy (Patients 1-5). To be noted: for Time without recurrence of pterygium: steroid and NSAID; for No pterygium regrowth observed as of (time after surgery): after third surgical removal and conjunctival grafting; for No pterygium regrowth observed as of (time after surgery) / No regrowth of pterygium observed as of (time after surgery): bevacizumab injections, NSAID eye drops; for No regrowth of pterygium observed as of (time after surgery): steroid eye drops. It is filed as in vivo, human. The source says: A topical anesthetic (proparacaine 0.5% eye drops or Alcaine manufactured by Alcon Laboratories Inc.) was applied to the eye following recent pterygiectomy (from ˜5 days to 2 months following surgery). The patients were examined to identify vascular growth on eye conjunctiva. […] If blood was present (indicating presence of blood vessel), the syringe needle was withdrawn. […] If bleeding occurred (e.g., in the form of subconjunctival or subcutaneous hematoma), tamponade with Q-Tips® was performed until bleeding stopped; then injection was resumed.
Anti-inflammatory steroid drops (prednisolone acetate 1% (Allergan)) were given for 6 weeks with frequency range from once a day to 4 times a day (every 6 hours) to every hour (24 drops/day). NSAID eye drops (Diclofenac 0.1% (Bausch and Lomb)) drops (1 mg/mL to 100 mg/mL) were given multiple times, 4 times a day every 6 hours for 3 to 6 months.
Patients were followed up to monitor for appearance of new blood vessel growth in the eye.
Five patients (Patients 1-5) underwent surgery to remove primary pterygium (pterygiectomy) from the cornea of one or both eyes followed by conjunctival grafting were treated as described below.

Another assay concerns recurrent pterygium. The following applies: bevacizumab not as part of the combination therapy; temporarily = e.g. 6 months or less; cited from earlier work.

For the compound `CC(=O)OCC(=O)[C@@]12OC3(CCCC3)O[C@@H]1C[C@H]1[C@@H]3CCC4=CC(=O)C=C[C@]4(C)[C@@]3(F)[C@@H](O)C[C@@]12C` [Amcinonide], the Potency result in assay [1] is “High”.
Regarding `CCCCC(=O)O[C@]1(C(=O)CO)[C@@H](C)C[C@H]2[C@@H]3CCC4=CC(=O)C=C[C@]4(C)[C@@]3(F)[C@@H](O)C[C@@]21C` [Betamethasone valerate], in assay [1], the Potency entry was “Medium-Low”.
On to “Bevacizumab: 149-Kd full length humanized anti-vascular endothelial growth factor (anti-VEGF) antibody”, for which the “Time without recurrence of pterygium” value in the assay on pterygium recurrence (FIG. 2 (Patient 2), combination therapy of bevacizumab) is on record as over 8 months; with pterygium recurrence (FIG. 4 (Patient 4), combination therapy of bevacizumab), over 9 months; with pterygium recurrence (FIG. 5 (Patient 5), combination therapy of bevacizumab), over 3 months; in the assay with pterygium recurrence (FIGS. 3A, 3B (Patient 3), combination therapy of bevacizumab) it was over 6 months. Besides, the “Pterygium Recurrence” value in the assay with pterygium recurrence (Patient 1, Right eye, bevacizumab + steroid (injected and/or eye drops) + topical NSAID eye drops) is “No”; with pterygium recurrence (Patient 2, Left eye, bevacizumab + steroid (injected and/or eye drops) + topical NSAID eye drops), “No”; in the assay on pterygium recurrence (Patient 3 (number not printed in row), Left Eye, bevacizumab + steroid (Kenalog injection), no NSAID), “completely regrew and Yes”; with pterygium recurrence (Patient 3 (number not printed in row), Right Eye, bevacizumab + steroid + topical NSAID eye drops), “No”; in the assay on pterygium recurrence (Patient 4, Right Eye, bevacizumab + steroid + topical NSAID eye drops) it was “No”; in the assay on pterygium recurrence (Patient 5, Right Eye, bevacizumab + steroid + topical NSAID eye drops), “No”. In addition, the “No pterygium regrowth observed as of (time after surgery)” value is reported as “about 520 days” with pterygium recurrence (Patient 1 right eye, bevacizumab+Kenalog injection); “about 240 days” in the assay with pterygium recurrence (Patient 2 left eye, bevacizumab and Kenalog injections). The “Pterygium recurrence after bevacizumab injection alone” value in the assay on pterygium recurrence (Patient 2 left eye, single bevacizumab injection on Day 17 after second surgical removal, no steroid or NSAID) is “further recurrence of the pterygium”. Also, the “No regrowth of pterygium observed as of (time after surgery)” value in the assay on pterygium recurrence (Patient 3 right eye, after surgical removal and amniotic membrane grafting) is “about 130 days”; in the assay on pterygium recurrence (Patient 4 right eye, after first surgical procedure, bevacizumab and Kenalog injections), “about 250 days”. Moreover, the “Pterygium regrowth (overall conclusion)” value with pterygium recurrence (combination therapy of bevacizumab, anti-inflammatory steroid (injected or topical) and topical NSAID, Patients 1-5) is reported as “inhibited”. Moreover, the “Combination therapy compared with bevacizumab alone” value with pterygium recurrence (combination therapy of bevacizumab, anti-inflammatory steroid and topical NSAID vs bevacizumab alone) was “superior”. In addition, the “Effect on recurrent pterygium reported in the literature” value in the assay with recurrent pterygium is given as “not effective or only temporarily effective; also recorded: temporary treatment”.
